# Where two headings read alike, the source gives them in different places.
# Legend:
# [1] = test system: Hormone Receptor Positive (+) metastatic breast cancer; assay type: in vivo, human; details: in combination with letrozole 2.5 mg/day per oral
# Procedure: An open-label, randomized multi-institution clinical study using the hydrochloride salt of Compound A alone and in combination with the therapeutic agent letrozole for the treatment of post-menopausal patients with Hormone Receptor Positive (+) metastatic breast cancer is investigated. Patients are evaluated for safety profile/tolerability and preliminary antitumor effect.
# Patients are included in the study if they meet the following criteria: at least 18 years of age, ECOG performance status 0-1, suffering from clinical stage 1V invasive mammary carcinoma (ER-positive, or PR-positive) by immunohistochemistry, life expectancy equal to or greater than 6 months, adequate hematologic, hepatic and renal function (ANC≥1500/mm^3, platelet count≥100,000 mm^3, HgB≥9 g/dL, creatine≤1.5×upper limits of normal, bilirubin≤1.5×upper limits of normal, SGOT, SGPT≤2.5×upper limits of normal if no liver metasis present or SGOT, SGPT alkaline phosphatase≤5×upper limits of normal if liver metasis present, capable of swallowing and retaining oral medication, disease free of prior invasive cancers for >5 years (exception of basal or squamous cancer of skin or cervical carcinoma in situ). Patients may receive concurrent radiation therapy to painful bone metastases or areas of impending bone fracture as long as radiation therapy is completed≤2 weeks prior to study and recovered from toxicity (≤grade 1) induced by this radiation treatment. Post-menopausal female subjects are defined prior to protocol enrollment by any of the following: Subjects at least 55 years of age; Subjects under 55 years of age and amenorrheic for at least 12 months or follicle-stimulating hormone (FSH) values[…] and estradiol levels≤20 IU/L; prior bilateral oophorectomy; prior radiation castration with amenorrhea for at least 6 months; current use of an LHRH agonist for more than 12 months.
# Patients with the following mood disorders as judged by investigator or psychiatrist are also excluded: medically documented history of or active major depressive episode; bipolar disorder (I or II), obsessive-compulsive disorder, schizophrenia, a history of suicidal attempt or ideation, or homicidal ideation (immediate risk of doing harm to others); or ≥CTCAE grade 3 anxiety.
# In the first stage of the study, safety and tolerability of the hydrochloride salt of Compound A is evaluated in combination with the therapeutic agent letrozole in post-menopausal patients with Hormone Receptor Positive (+) metastatic breast cancer is investigated. The maximum tolerated dose of the hydrochloride salt of Compound A […] is determined at dosages of 100 mg per oral daily, 80 mg per oral daily, and 50 mg per oral daily, in combination with letrozole administered at 2.5 mg/day per oral.
# In the second stage of the study, the antitumor effect of the hydrochloride salt of Compound A in combination with letrozole for the treatment of post-menopausal patients with Hormone Receptor Positive (+) metastatic breast cancer is investigated. Patients are administered the hydrochloride salt of Compound A and letrozole at a daily dosage identified to be with in the MTD in the first stage (Arm A).
# In one additional experimental arm (Arm C), Patients are administered a daily dosage of the hydrochloride salt of Compound A in the amount of 60, 80 or 100 mg per oral on Monday through Fridays only each week in combination with 2.5 mg/day per oral letrozole.
# Secondary outcome for the second stage is progression free survival and response.
# Following the above experiment, 51 patients were accrued, 49 progressed after aromatase inhibitor therapy. Median age was 56 years and 95% of patients ad bone metastasis and 70% visceral metastases.
# solid tumors = details: humans; Bendell et al., J. Clin. Oncology 2012; cited from earlier work
# [2] = Arm C (31): 60, 80 or 100 mg per oral Monday through Fridays only
structure (smiles),measurement,setting,value
"Nc1cc(C(F)(F)F)c(-c2cc(N3CCOCC3)nc(N3CCOCC3)n2)cn1 [Compound A, 5-(2,6-di-morpholin-4-yl-pyrimidin-4-yl)-4-trifluoromethyl-pyridin-2-ylamine]",Median TTP,[1]; Arm A (20): daily dosing,4 (2-11) months
same,Patient outcomes: CR,[1]; Arm A (20): daily dosing,1
same,Patient outcomes: PD,[1]; Arm A (20): daily dosing,7
same,Patient outcomes: PR,[1]; Arm A (20): daily dosing,1
same,Patient outcomes: SD,[1]; Arm A (20): daily dosing,9
same,Median TTP,[1]; [2],Not reached
same,Patient outcomes: CR,[1]; [2],0
same,Patient outcomes: PD,[1]; [2],8
same,Patient outcomes: PR,[1]; [2],0
same,Patient outcomes: SD,[1]; [2],4
same,efficacy in the treatment of solid tumors,solid tumors,has been demonstrated in humans

# From patent publication US10213432B2, “Dosage regimen for a PI-3 kinase inhibitor” (NOVARTIS AG, priority 2012, dated 2019)
